This is an account of results in the NIST ThermoML archive (doi:10.1016/j.fluid.2014.07.032).

± gives the expanded uncertainty stated by the source.

In general, mass density refers to the mass of a sample divided by its volume. In general, refractive index refers to the speed of light in vacuum divided by its phase velocity in the sample.

The conditions of data set [1]: Liquid; for mass density: 298.15 K, 101.33 kPa, Vibrating tube method; for Normal boiling temperature: Ebulliometric method (Recirculating still).
The nature of data set [2]: refractive index (Na D-line) (dimensionless). As to conditions: 298.15 K; 101.33 kPa; Liquid; Standard Abbe refractometry.

In the case of `CCCCC(CC)COC(C)=O` (stereo not drawn) [2-ethylhexyl acetate], in data set [1], the mass density is given as 872.25 ± 0.24 kg/m3 and the Normal boiling temperature is 199.10 ± 0.2 °C. For the same compound, the refractive index in data set [2] amounted to 1.4205 ± 0.0007.
The like results for `CC(=O)O` [acetic acid] were, in that order, 1049.42 ± 0.08 kg/m3, 118.1 ± 1 °C and 1.3713 ± 0.0007.
Turning to `O` [water], the Normal boiling temperature in data set [1] was 100.1 ± 1 °C. For the same compound, in data set [2], the refractive index is 1.3324 ± 0.0007.
